Measured values published in paper PMC11409059, “Substitution of Glu378 in EF-Tu disrupts binding to KKL-55” (microPublication Biology, 2024).
pKd: −log10 of the molar value.

Molecular target: EF-Tu (6His-tagged EF-Tu, tufA) (Escherichia coli, UniProt P0CE47, E379A)
Experiment: biochemical

In the case of CCCn1nnnc1NC(=O)c1cccc(Cl)c1 [KKL-55], the pKd was 5.62.
